# Columns and labels:
# Type in all cases: in vivo, mouse
# [1] = tested on: C57Bl/6 mice with unilateral ureter obstruction (UUO); assay: Sirius Red staining of kidney sections, UUO model of renal fibrosis; settings: 3 mg/kg subcutaneously the day before and daily for 14 days after UUO
# Description: The effect of ND-13 on renal disease was then assessed. Unilateral ureter obstruction (UUO) was chosen as a model of renal disease to determine if ND-13 has a protective effect. The UUO model is an known model of human and animal kidney disease, which mimics the effects of chronic kidney disease and diabetes (i.e., diabetic nephropathy), due to its capability of generating a progressive renal (tubule interstitial) fibrosis and has advantages of good reproducibility, a short time course and the presence of a contralateral kidney as control.
# C57Bl/6 control mice as well as DJ-1 knockout mice were subjected to UUO in order to examine mechanisms involved in renal tubule interstitial fibrosis in vivo and to determine if ND-13 has a protective effect against renal disease. DJ-1 knockout mice used herein were from the original F2 hybrid strain (129/SvXC57BL/6J) that contained the mutated DJ-1 allele (DJ-1−/−) backcrossed to wild-type C57BL/6J for >20 generations and genotyped. […]
# Renal interstitial fibrosis was assessed in the mice by Sirius Red staining. […] Sirius Red staining was examined with an Olympus BX-41 microscope and the amount of collagen in the kidney was quantified by ImageJ software. Two images of about 70% of the renal cortical sections were used in the quantification. […]
# [2] = tested on: C57Bl/6 mice with unilateral ureter obstruction (UUO); assay: Urinary NGAL ELISA after UUO; settings: urine 14 days after UUO, 3 mg/kg subcutaneously daily
# From the text: (§1) C57Bl/6 control mice as well as DJ-1 knockout mice were subjected to UUO in order to examine mechanisms involved in renal tubule interstitial fibrosis in vivo and to determine if ND-13 has a protective effect against renal disease. DJ-1 knockout mice used herein were from the original F2 hybrid strain (129/SvXC57BL/6J) that contained the mutated DJ-1 allele (DJ-1−/−) backcrossed to wild-type C57BL/6J for >20 generations and genotyped. Prior to UUO, ND-13 peptide and scrambled control peptide (3 mg/kg diluted in […] of saline) were injected subcutaneously to C57Bl/6 and DJ-1 knockout mice the day before performing the complete UUO. For UUO surgery, the procedure was performed as follows. Briefly, mice were anesthetized with isofluorane (3-5% for induction and 1-3% for maintenance) and divided into two experimental groups: the UUO group and the sham operation group. In the UUO group, mice were shaved on the left side of the abdomen, a vertical incision was made through the skin with a scalpel and the skin was retracted. A second incision was made through the peritoneum to expose the kidney. The left ureter was ligated twice 15 mm below the renal pelvis with surgical silk and the ureter was then severed between the two ligatures. Then, the ligated kidney was placed gently back into its correct anatomical position and sterile saline was added to replenish loss of fluid. […]
# [3] = tested on: DJ-1 knockout mice with unilateral ureter obstruction (UUO); assay: Urinary NGAL ELISA after UUO; settings: urine 14 days after UUO, 3 mg/kg subcutaneously daily
# From the text: as §1
# [4] = tested on: TNF-alpha, IL-6, Col1a1 and TGF-beta mRNA in kidneys of C57Bl/6 mice with UUO; assay: qRT-PCR of renal inflammatory and fibrotic marker mRNA after UUO; settings: 14 days after UUO, normalized by GAPDH
# From the text: (§2) C57Bl/6 control mice as well as DJ-1 knockout mice were subjected to UUO in order to examine mechanisms involved in renal tubule interstitial fibrosis in vivo and to determine if ND-13 has a protective effect against renal disease. DJ-1 knockout mice used herein were from the original F2 hybrid strain (129/SvXC57BL/6J) that contained the mutated DJ-1 allele (DJ-1−/−) backcrossed to wild-type C57BL/6J for >20 generations and genotyped. Prior to UUO, ND-13 peptide and scrambled control peptide (3 mg/kg diluted in […] of saline) were injected subcutaneously to C57Bl/6 and DJ-1 knockout mice the day before performing the complete UUO. For UUO surgery, the procedure was performed as follows. Briefly, mice were anesthetized with isofluorane (3-5% for induction and 1-3% for maintenance) and divided into two experimental groups: the UUO group and the sham operation group. In the UUO group, mice were shaved on the left side of the abdomen, a vertical incision was made through the skin with a scalpel and the skin was retracted. A second incision was made through the peritoneum to expose the kidney. The left ureter was ligated twice 15 mm below the renal pelvis with surgical silk and the ureter was then severed between the two ligatures. Then, the ligated kidney was placed gently back into its correct anatomical position and sterile saline was added to replenish loss of fluid. The incisions were sutured and mice were individually caged. Buprenorphine was used as an analgesic. 24 hours after UUO surgery, the ND-13 peptide and scrambled control peptide (3 mg/kg diluted in […] of saline) were injected subcutaneously to C57Bl/6 and DJ-1 knockout mice and then injected every day thereafter for 14 days following UUO. Untreated normal C57Bl/6 mice served as a control. After 14 days, urine was collected and the mice were sacrificed. Tissues, including the kidneys, were obtained for analyses.
# (§3) Next, the effect of ND-13 on mRNA expression of inflammatory and fibrotic markers in the kidneys of mice with UUO was tested. Briefly, RNA was extracted from whole renal tissue harvested from ND-13-treated C57Bl/6 and DJ-1 knockout mice 14 days after the UUO procedure. RNA extracted from untreated C57Bl/6 mice served as the control. The extracted RNA was subjected to qRT-PCR using standard methods. The mRNA expression of TNF-alpha (tumor necrosis factor alpha), IL-6 (Interleukin 6), Col1a1 (collagen, type I, alpha 1) and TGF-beta (transforming growth factor beta) were quantified by qRT-PCR in mice from each group. Data were normalized by expression of the house keeping gene GAPDH (glyceraldehyde 3-phosphate dehydrogenase). […] The increased renal expressions of TNF alpha and IL-6, and TGF-beta associated with UUO was decreased by ND-13 in both C57Bl/6 mice (FIGS. 3A, 3B, and 3D) and DJ-1 knockout mice (FIGS. 3E, 3F, and […]).
# [5] = tested on: TNF-alpha, IL-6, Col1a1 and TGF-beta mRNA in kidneys of DJ-1 knockout mice with UUO; assay: as above; settings: 14 days after UUO, normalized by GAPDH
# From the text: as §2, §3
sequence,measurement,setting,value
YGRKKRRKGAEEMETVIPVD [ND-13],"renal interstitial fibrosis (collagen, Sirius Red staining)",[1],prevented fibrosis
same,urinary NGAL (marker of renal damage),[2],decreased urinary NGAL to control levels
same,urinary NGAL (marker of renal damage),[3],not protected
same,renal mRNA expression of Col1a1,[4],decreased
same,renal mRNA expression of IL-6,[4],decreased
same,renal mRNA expression of TGF-beta,[4],decreased
same,renal mRNA expression of TNF-alpha,[4],decreased
same,renal mRNA expression of Col1a1,[5],not DJ-1 knockout mice
same,renal mRNA expression of IL-6,[5],decreased
same,renal mRNA expression of TGF-beta,[5],decreased
same,renal mRNA expression of TNF-alpha,[5],decreased

# Source: patent US20220251153A1, “PEPTIDES FOR THE TREATMENT OF RENAL DISORDERS” (THE GEORGE WASHINGTON UNIVERSITY, priority 2019, published 2022)
